Results as given in US20130039956A1, “USE OF NITROCARBOXYLIC ACIDS FOR THE TREATMENT, DIAGNOSIS AND PROPHYLAXIS OF AGGRESSIVE HEALING PATTERNS” (priority 2010, published 2013).

How the values were obtained:
[1] = system: canine cutaneous mastocytoma cells; experiment: Toxin response of mast cells (mastoparan, Streptolysin O, UVB); format: cell-based; conditions: preincubation 10 and 100 μmol, compared with native FA
Method: In order to determine membrane stabilizing and anticytotoxic properties of nitrated fatty acids, an in vitro model utilizing canine cutaneous mastocytoma cells was chosen. Cells were cultured according to standard procedure. Cytotoxic effects were quantified by measuring not only by Ca^2+ influx, histamine, and TNFα release, but also by using the MTT assay. Cell suspensions were incubated with 0.9% saline, one of the nitrocarboxylic acids as listed in table 1 or the respective native fatty acid as to achieve a final concentration of 10 and 100 μmol which was given to the medium 15 min before toxin application.
Mastoparan suspended in a buffer solution was added to the preincubated mast cell suspensions to achieve a final concentration of 10 or 30 μmol, respectively. Measurements were performed after 1 hour incubation time. […] Preincubation of mast cells with nitrated fatty acids reduced the effects on Ca^2+ influx, histamine release, and apoptosis induction in a dose-dependent manner, with an almost complete absence of apoptosis at a concentration of 100 μmol.
Streptolysin O was given to preincubated suspensions to achieve a final concentration of 500 ng/ml. Measurements were performed after 2 hours. Releases of histamine and TNFα in the suspensions were measured. After saline preincubation, a significant release of histamine and TNFα was observed.
Cell plates were exposed to a single dose (250 mJ/cm2) of UVB using a lamp (Saalmann, Herford, Germany) emitting most of its energy within the UVB range (295 to 315 nm). Tryptase levels in the supernatants were determined after 30 minutes, and concentrations of TNFα after 60 minutes. After preincubation with saline, there was a marked increase of tryptase. Preincubation with native fatty acids led to a dose-dependent reduction of tryptase release, which was significant at the lower irradiation dose but not after exposure to a high irradiation dose. […] For all nitrated fatty acids that were used the results were mostly inside the same range. Relative differences can be represented as follows: […]

[2] = system: Human peripheral blood mononuclear cells (PBMCs); experiment: Adhesion of serum proteins and monocyte activation induced by coated silicone; format: cell-based; conditions: dip-coated silicone, PBMCs 3 days; compared with native FA; note: key: 0: not superior to native FA (control); +: Superior to native FA; ++: superior to both; +++: outstanding effect
Method: In order to determine the effect of coating implant materials with nitro fatty acids to reduce adsorption of adhesion molecules and monocyte activation, sterile silicone sheets were out in small pieces and coated with respective nirocarboxylic acid and the corresponding native fatty acids by dip coating. Uncoated silicone pieces served as controls. For each fatty acid two sets of silicone pieces were bathed in freshly drawn human serum for 1 hour at 37° C., and another two sets were bathed in saline solutions. One set of both coated and uncoated pieces was analyzed immediately for adhesion proteins and the other set was placed in 96-well plates after rinsing the silicone pieces. Human peripheral blood mononuclear cells (PBMCs), isolated from three healthy subjects, were added to each well. Wells were incubated for 3 days under standard conditions. Culture supernatants were assayed for IL-1beta, IL-6, IL-8, and chemoattractant protein 1 (MCP-1) levels at the start and end of experiments.
Before analyzing the silicone pieces for protein adsorption, they were bathed in saline for 5 minutes. Thereafter, one side was rinsed with saline as performed for both sides in the set used for culturing. There was marked adsorption of fibrinogen and […] C5b-9 on the uncoated silicone. […] No protein was found on the surface of the nitro fatty acid-coated sample that was rinsed, thus, indicating the weak adherence of serum proteins.

Cardiomyocytes = experiment: TGF-β1-inducible formation of extracellular matrix in cardiomyocytes under shear stress; format: cell-based; conditions: 10-100 μmol, shear stress up to 100 dyn/cm^2; compared with native FA; note: key: 0: not superior to native FA (control); +: Superior to native FA; ++: superior to both; +++: outstanding effect
Method: Characterizing features of the fibrous remodelling in the heart are accentuated expression and deposition of extracellular matrix proteins (ECM). This has been attributed to increased mechanical forces via autocrine release of transforming growth factor-beta (TGF-beta). […] An established cell culture model was used to investigate the effect of shear stress on cardiomyocytes. Cardiomyocytes were cultured and transferred to a matrigel substrate. Plates with confluenced cells were placed into a shear force injury device (SFID). The SFID design is based on a cone-and-plate construction which is a well-defined rheological model in which a homogenously distributed laminar flow over the surface of the cells is generated by a rotating cone. The conical surface is positioned above a stationary flat plate and the fluid medium between these two surfaces is set in motion by rotating the cone to create a uniform level of fluid shear stress throughout the entire surface of the cells cultured on the coverslips.
A peak shear stress of 100 dyn/cm^2 could be applied without significant cell detachment enabling a maximum injury severity of 46%. Cells were exposed to FCS 1% without or with nitro-fatty acid, and the corresponding native fatty acid in a dosage range between 10 μmol and 100 μmol, 10 seconds before shear force application. Shear force peaks up to 100 dyn/cm^2 with a duration of 30 msec each with a repetition frequency of 60/minute were applied for 5, 10, 30 and 60 minutes. Thereafter the cell plates were washed and placed in FCS 1% for 24 hrs. The supernatant of the shear force investigation as well as that of the following culture phase was analysed. It could be shown that TGF-beta and ECM proteins (collagen I, fibronectin, laminin, elastin) increased after treatment in the control groups.

[3] = system: female Sprague-Dawley rats; experiment: Fibrogenesis in an in-vivo model of soft implant implantation; design: species or system rat; conditions: subcutaneous implants, 120 days, compared with native FA; note: key: 0: not superior to native FA (control); +: Superior to native FA; ++: superior to both; +++: outstanding effect
Method: Silicone bag-gel miniprostheses (POLYTECH Health & Aesthetics GmbH, Dieburg, Germany) having a diameter of 2 cm and a volume of approximately 2 ml were used. […] The experimentally used implant models had two small tags which allowed the implants to be suspended during the coating procedures.
Each implant was treated in the following manner: cleaning by sonication for 2 min each in the following sequence of solvents: acetone, toluene, acetone, ethanol, and water. Implants were exposed to Piranha solution for 60 min and rinsed with deionized water. They were then immersed in a 20% aqueous solution of ammonium fluoride for 45 min to obtain a hydrogen-passivated Si surface. The ammonium fluoride solution was sparged with nitrogen for 15 min to remove dissolved oxygen. Prepared implants were transferred to a glass chamber filled with an inert atmosphere where they were suspended so that no part of their surface came in contact with the container. The container was filled with a 1-hexadecene solution and heated at 150° C. at a pressure of 2 Torr for 120 min. Prepared implants were cleaned in the following sequence of solvents: acetone, ethanol, and water. Formation of self assembled monolayer was controlled by measuring surface hydrophobicity; the contact angle was about 105°. Dry implants suspended in the container were then bathed in an ethanolic solution of oleic acid or nitro-oleic acid at a temperature of 40° C. for 120 min. Thereafter, the solution was allowed to run out slowly through an outlet at the bottom of the container. The emptying container was filled with inert gas in which the samples were maintained for 24 hours. Then samples were bathed three times in an ethanolic solution, followed by a final rinsing with sterile water. After drying, the container with the prepared implant was sterilized using ethylene oxide and stored at 20° C.
For in vivo testing, 24 uncoated and 24 coated implants were investigated in 24 female Sprague-Dawley rats (190-230 g). In the anesthetized animals, bilateral dorsal pockets in the subcutaneum were created by blunt dissection through paired paravertebral incisions. Each animal received one coated implant and one control implant on opposite sides, alternating sides on successive animals. Animals were housed and fed according to institutional standards for 120 days. Animals were sacrificed with chloroform. The implants and the adhering tissue were extracted by en bloc resection. The implants were cannulated and the liquid silicone gel was replaced by paraffin. Thereafter, the complete tissue block was prepared by standard means of histology, and stained with H&E or Masson's trichrome.

5-nitro-eicosatrienoic acid [compound 4]
Relative differences: effect on toxin response of mast cells [1]: +
Relative effect on serum protein adhesion and monocyte activation [2]: +
Relative efficacy to suppress TGF-beta and ECM proteins in cardiomyocytes (Cardiomyocytes): +

9,10-nitro-cis-oleic acid [compound 10]
Relative differences: effect on toxin response of mast cells [1]: +++
Relative effect on serum protein adhesion and monocyte activation [2]: ++
Relative efficacy to suppress TGF-beta and ECM proteins in cardiomyocytes (Cardiomyocytes): ++
Relative effect of surface coating on fibrogenesis around silicone implants [3]: ++

9,10-nitro-trans-oleic acid [compound 15]
Relative differences: effect on toxin response of mast cells [1]: ++
Relative effect on serum protein adhesion and monocyte activation [2]: +
Relative efficacy to suppress TGF-beta and ECM proteins in cardiomyocytes (Cardiomyocytes): +
Relative effect of surface coating on fibrogenesis around silicone implants [3]: +

CCCCCCCC/C=C(/CCCCCCCC(=O)O)[N+](=O)[O-] [compound 1, 9-nitro cis-oleic acid]
Relative differences: effect on toxin response of mast cells [1]: +++
Relative effect on serum protein adhesion and monocyte activation [2]: +++
Relative efficacy to suppress TGF-beta and ECM proteins in cardiomyocytes (Cardiomyocytes): ++
Relative effect of surface coating on fibrogenesis around silicone implants [3]: ++

CCCCC/C=C\C/C(=C\CCCCCCCC(=O)O)[N+](=O)[O-] [compound 2, 10-nitro-cis-linoleic acid]
Relative differences: effect on toxin response of mast cells [1]: ++
Relative effect on serum protein adhesion and monocyte activation [2]: ++
Relative efficacy to suppress TGF-beta and ECM proteins in cardiomyocytes (Cardiomyocytes): ++
Relative effect of surface coating on fibrogenesis around silicone implants [3]: ++

CCCCCCCC/C(=C/CCCCCCCC(=O)O)[N+](=O)[O-] [compound 3, 10-nitro-cis-oleic acid]
Relative differences: effect on toxin response of mast cells [1]: +++
Relative effect on serum protein adhesion and monocyte activation [2]: ++
Relative efficacy to suppress TGF-beta and ECM proteins in cardiomyocytes (Cardiomyocytes): ++
Relative effect of surface coating on fibrogenesis around silicone implants [3]: ++

CCCCC/C=C(/C/C=C\C/C=C\C/C=C\C/C=C\CCC(=O)O)[N+](=O)[O-] [compound 5, 16-nitro-all-cis-4,7,10,13,16-docosapentaenoic acid]
Relative differences: effect on toxin response of mast cells [1]: +
Relative effect on serum protein adhesion and monocyte activation [2]: +
Relative efficacy to suppress TGF-beta and ECM proteins in cardiomyocytes (Cardiomyocytes): +

CC/C=C\C/C=C\C/C=C(/CCCCCCCC(=O)O)[N+](=O)[O-] [compound 6, 9-nitro-all-cis-9-12,15-octadecatrienoic acid]
Relative differences: effect on toxin response of mast cells [1]: ++
Relative effect on serum protein adhesion and monocyte activation [2]: +
Relative efficacy to suppress TGF-beta and ECM proteins in cardiomyocytes (Cardiomyocytes): +++
Relative effect of surface coating on fibrogenesis around silicone implants [3]: ++

CC/C=C\C/C=C\C/C(=C/C/C=C\C/C=C\CCCCCC(=O)O)[N+](=O)[O-] [compound 7, 14-nitro-all-cis-7,10,13,16,19-docosapentaenoic acid]
Relative differences: effect on toxin response of mast cells [1]: ++
Relative effect on serum protein adhesion and monocyte activation [2]: 0
Relative efficacy to suppress TGF-beta and ECM proteins in cardiomyocytes (Cardiomyocytes): +

CCCCCCCC/C=C(/CCCCCCCCCCCCCC(=O)O)[N+](=O)[O-] [compound 8, 15-nitro-cis-15-tetracosenoic acid]
Relative differences: effect on toxin response of mast cells [1]: +
Relative effect on serum protein adhesion and monocyte activation [2]: +
Relative efficacy to suppress TGF-beta and ECM proteins in cardiomyocytes (Cardiomyocytes): +
Relative effect of surface coating on fibrogenesis around silicone implants [3]: +

CCCCCCCC/C(=C\CCCCCCCC(=O)O)[N+](=O)[O-] [compound 12, 10-nitro-trans-oleic acid]
Relative differences: effect on toxin response of mast cells [1]: ++
Relative effect on serum protein adhesion and monocyte activation [2]: 0

CCCCCC/C=C(/CCCCCCCC(=O)O)[N+](=O)[O-] [compound 13]
Relative effect on serum protein adhesion and monocyte activation [2]: +
Relative effect of surface coating on fibrogenesis around silicone implants [3]: +

CCCCCC=CCC=C(CC=CCC=CCCCC(=O)O)[N+](=O)[O-] [compound 14, 11-nitro-5,8,11,14-eicosatrienoic acid]
Relative effect on serum protein adhesion and monocyte activation [2]: +
Relative efficacy to suppress TGF-beta and ECM proteins in cardiomyocytes (Cardiomyocytes): +
Relative effect of surface coating on fibrogenesis around silicone implants [3]: +

CCCCCC/C=C(\CCCCCCCC(=O)O)[N+](=O)[O-] [compound 16, 9-nitro-9-trans-hexadecenoic acid]
Relative differences: effect on toxin response of mast cells [1]: ++
Relative effect on serum protein adhesion and monocyte activation [2]: 0
Relative effect of surface coating on fibrogenesis around silicone implants [3]: 0

CCCCCCCC/C=C(/CCCCCCCCCCCC(=O)O)[N+](=O)[O-] [compound 17, 13-nitro-cis-13-docosenoic acid]
Relative differences: effect on toxin response of mast cells [1]: +
Relative effect on serum protein adhesion and monocyte activation [2]: +

CCCCC/C=C(/C/C=C\C/C=C(/C/C=C\CCCC(=O)O)[N+](=O)[O-])[N+](=O)[O-] [compound 18, 8,14-nitro-cis-5,8,11,14-eicosatetraenoic acid]
Relative differences: effect on toxin response of mast cells [1]: 0
Relative effect on serum protein adhesion and monocyte activation [2]: ++

CCC=CCC=C(CC=CCC=CCC=CCC=C(CCC(=O)O)[N+](=O)[O-])[N+](=O)[O-] [compound 19, 4,16-nitro-docosahexaenoic acid]
Relative differences: effect on toxin response of mast cells [1]: 0
Relative effect on serum protein adhesion and monocyte activation [2]: +

CCCCCCCCCCC/C=C(/CCCCC(=O)O)[N+](=O)[O-] [compound 21, 6-nitro-cis-6-octadecenoic acid]
Relative effect on serum protein adhesion and monocyte activation [2]: 0
Relative efficacy to suppress TGF-beta and ECM proteins in cardiomyocytes (Cardiomyocytes): ++
Relative effect of surface coating on fibrogenesis around silicone implants [3]: +
